# Measurements reported in patent publication US20240261294A1, “METHOD FOR TREATING IDH INHIBITOR-RESISTANT SUBJECTS” (Eli Lilly and Company, priority 2021, published 2024).
# Residue numbers refer to the chain shown, from its start. pIC50: −log10 of the molar value. Where two headings read alike, the source gives them in different places.
# How the values were obtained:
# IDH2 R172K = biological target: T1, IDH2 R172K (Homo sapiens, UniProt P48735, R172K); experiment: Inhibition of 2-HG production in IDH2 mutant U-87 MG cells; assay type: cell-based
# T1 sequence (P48735 40-452 R172K): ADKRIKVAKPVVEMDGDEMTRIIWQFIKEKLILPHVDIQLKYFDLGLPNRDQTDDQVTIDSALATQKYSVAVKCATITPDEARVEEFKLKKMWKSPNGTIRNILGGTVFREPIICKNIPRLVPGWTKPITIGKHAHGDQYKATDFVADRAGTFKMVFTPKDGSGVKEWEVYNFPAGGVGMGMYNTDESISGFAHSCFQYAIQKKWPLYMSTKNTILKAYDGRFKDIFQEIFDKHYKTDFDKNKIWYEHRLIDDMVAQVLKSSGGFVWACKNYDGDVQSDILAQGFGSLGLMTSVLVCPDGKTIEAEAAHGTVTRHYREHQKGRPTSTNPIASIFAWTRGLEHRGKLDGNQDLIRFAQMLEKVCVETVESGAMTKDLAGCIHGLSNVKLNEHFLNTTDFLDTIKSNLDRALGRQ
# Method: (§1) Compounds and Formulation. Compound A may be synthesized as described in WO/18/111707. Compound A is prepared as a 20 mM stock in 100% DMSO (dimethyl sulfoxide) (Sigma, D2438) and diluted serially in 100% DMSO to achieve the desired concentrations. DMSO preparations are further diluted with cell culture media prior to addition in the assay.
# (§2) Cell lines. U-87 MG cells (ATCC, HTB-14) are cultured and assayed in MEM (Gibco, 11095) with 2 mM GlutaMAX (Gibco, 35050), 1 mM Pyruvate (Gibco, 11360), 0.1 mM NEAA ((Non-essential amino acid) Gibco, 11140) and 10% dialyzed FBS (Fetal bovine serum) (Gibco, 26400).
# (§3) Cell-based inhibition assays. Cell-based assays are performed by measuring 2-HG in U-87 MG cells in which IDH2 mutations are expressed.
# (§4) DNA constructs encoding IDH2 mutations are introduced into U-87 MG cells using transfection (Promega FuGENE HD, E2311) or lentiviral transduction, and the IDH2-mutant expressing cell lines are selected using blasticidin (5 μg/ml) or puromycin (1 μg/ml). Second site mutations (Q316E, I319M, P167R, and G260A) are evaluated in cis (same monomer as driver mutation within dimer) or in trans (opposite monomer from driver mutation in dimer). For compound treatments, 12,500 or 50,000 cells per well in culture medium (150 μl or 100 μl, respectively) are plated in 96 well cell culture plates (Falcon, 353377) 2 hrs prior to treatment. Cells are treated with serial dilutions of compound A in standard growth media. Plates are incubated in a mammalian cell culture incubator (humidified, 37° C., 5% CO2) for 16 or 72 hrs. Following the incubation period, the media is aspirated and cell extracts are prepared by addition of ice-cold 80% methanol/20% water (100 μL) containing liquid chromatography-mass spectrometry (LC-MS) internal standards (1 μM ^13C4 α-KG and ^13C5 2-HG) per well for ion pairing LC-MS method. 96-well sample plates are then sealed, shaken at 450 rpm for 10 min, and then placed at −20° C. and stored until LC-MS analysis.
# (§5) LC-MS metabolite analysis of conditioned media and cell lysates. The effect of inhibitors on the concentrations of 2-HG are determined by LC-MS analysis of cell lysates using an ion-pairing method as described below.
# (§6) Calibration curves are prepared by spiking 2-HG and α-KG into 80% methanol/20% water containing LC-MS internal standards (1 μM ^13C4 α-KG and 1 μM ^13C5 2-HG). The quantitation of 2-HG and α-KG is accomplished using an AB Sciex 6500 mass spectrometer with an Electrospray Ionization (ESI) probe and interfaced with an Ultra Performance Liquid Chromatography (UHPLC) system in the negative multiple-reaction monitoring (MRM) mode. The UHPLC system consists of an Agilent 1290 binary pump, thermostatted column compartment (TCC), and sampler. The injection volume is 1 μL for cell culture extracts. The extracts are chromatographically resolved using a Hypercarb column, 2.1×20 mm, […] Javelin HTS (Thermo Scientific, PN: 35005-022135). Mobile phase A is water/10 mM tributylamine/15 mM acetic acid. Mobile phase B is acetonitrile/20 mM tributylamine/30 mM acetic acid. The solvent flow rate is 1.0 mL/min. The isocratic condition is kept at 26% mobile phase B. The valve, sample loop, and needle are washed with 50% acetonitrile: 50% methanol for 20 seconds. The column temperature is kept at 55° C. Calibration curves are calculated by least-square linear regression with 1/x weighting. 2-HG and α-KG are quantified using standard curve and ratio of the peak area of analytes to internal standard. Data analysis is performed using MultiQuant 3.0 (AB Sciex). The raw data are exported to Microsoft Excel spreadsheets.
# (§7) Determination of IC50 Curves. IC50 curves for each compound are obtained using four parameter data fitting analysis in GraphPad/Prism software.
# IDH2 R172W = biological target: T2, IDH2 R172W (Homo sapiens, UniProt P48735, R172W); experiment: as above; assay type: cell-based; conditions: read-out: Relative IC50 (nM) Mean, inhibition of 2-HG production
# T2 construct: expressed in transfected cells; host or cells: U-87 MG
# T2 sequence (P48735 40-452 R172W): T1 sequence (P48735 40-452 R172K) with K133W
# Method: as §1, §2, §3, §4, §5, §6, §7
structure (smiles),measurement,setting,value
"C=CC(=O)N1CCN([C@@H](CC2CC2)c2ccc([C@H](C)Nc3ncc4c(n3)N(CC)C(=O)OC4)cc2)CC1 [Compound A, 7-[[(1S)-1-[4-[(1S)-2-cyclopropyl-1-(4-prop-2-enoylpiperazin-1-yl)ethyl]phenyl]ethyl]amino]-1-ethyl-4H-pyrimido[4,5-d][1,3]oxazin-2-one]",IC50,"IDH2 R172K; 16 hours incubation, 50K cells/well, 100 μl media/well, read-out: Relative IC50 (nM) Mean, inhibition of 2-HG production",56 nM
same,pIC50,"IDH2 R172K; 72 hours incubation, 12.5K cells/well, 150 μl media/well, read-out: IC50, inhibition of 2-HG production",7.87
same,IC50,"IDH2 R172W; 16 hours incubation, 50K cells/well, 100 μl media/well",336 nM
same,IC50,"IDH2 R172W; 72 hours incubation, 12.5K cells/well",47 nM
